Patent US20230060820A1, “OCTENIDINE SALT ANTIMICROBIAL MEDICAL ARTICLES” (3M INNOVATIVE PROPERTIES COMPANY, priority 2019, published 2023)
Structures can show the parent of a compound that is named as a salt. Where two headings read alike, the source gives them in different places.

Tests used:
[1] = cited from earlier work; for Solubility: previous reports
[2] = Solubilization of octenidine hydrochloride in solvents (homogeneous solution); format: physicochemical; conditions: for Homogeneous solution: 10% (w/w), room temperature 20-25° C.
Description: Previous reports have shown that octenidine hydrochloride is soluble in both propylene glycol and ethylhexylglycerine, both of which are diol solvents. Hydrogen-bonding solvents with different functionalities were tested for their ability to solvate octenidine hydrochloride. Each solvent was combined with octenidine hydrochloride at 10% (w/w) with mixing at room temperature, i.e., 20-25° C. In some cases, sonication and/or heat were added to hasten dissolution.

[3] = higher than chlorhexidine; cited from earlier work

In the case of `N=C(NCCCCCCNC(=N)NC(=N)Nc1ccc(Cl)cc1)NC(=N)Nc1ccc(Cl)cc1.O=C(O)[C@H](O)[C@@H](O)[C@H](O)[C@H](O)CO.O=C(O)[C@H](O)[C@@H](O)[C@H](O)[C@H](O)CO` [chlorhexidine gluconate, Chlorhexidine digluconate], the Homogenous solution formation ([1]; in glycol fatty monoesters, known) is given as “do not form homogenous solutions”.
For `CCCCCCCCN=c1ccn(CCCCCCCCCCn2ccc(=NCCCCCCCC)cc2)cc1` [octenidine hydrochloride, Octenidine hydrochloride], the Homogeneous solution ([2]; in 2-octyldodecanol) was “No”, the Homogeneous solution ([2]; in glycerol monocaprylate) was “Yes” and the Homogeneous solution ([2]; in glycerol monoisostearate) was “Yes”. For the same compound, the Solubility ([2]; in glycol fatty monoesters) was “soluble”, the Homogeneous solution ([2]; in lauramide diethanolamine) was “Yes” and the Homogeneous solution ([2]; in methoxyisopropanol) was “Yes”. For the same compound, the Homogeneous solution ([2]; in propylene glycol dicaprylate/caprate) was “No”, the Homogeneous solution ([2]; in propylene glycol monoheptanoate) was “Yes” and the Homogeneous solution ([2]; in propylene glycol monolaurate) was “Yes”. The Homogeneous solution ([2]; in propylene glycol) was “Yes”, the Solubility ([2]; in the glycol fatty diester) was “insoluble” and the Solubility ([2]; in the monohydric alcohol) was “insoluble”. For the same compound, the Solubility ([1]; in ethylhexylglycerine) was “soluble”, the Solubility ([1]; in propylene glycol) was “soluble” and the “Antimicrobial efficacy relative to chlorhexidine” value [3] was 3-10 times.
